The structures appear in SMILES notation.

The assay addresses HIV-1 PR (Human immunodeficiency virus type 1 group M subtype B, UniProt P04585). As to the kind of experiment: HIV-protease inhibitory activity assay (FRET peptide substrate). It is filed as biochemical. The conditions noted are these: Test Example 1. The gist of the method:
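Inhibition of HIV-1 protease was measured as loss of fluorescence dequenching of a HiLyte Fluor 488/QXL 520 peptide at 2 μmol/L, pH 4.8, room temperature, 60 minute reaction. IC50 was derived by nonlinear four-parameter fitting.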
For the molecule `COc1ccc(S(=O)(=O)N(CC(C)C)CC(O)C(Cc2ccc(-c3ccc(Cn4nc5c(c4C(=O)O)CC(C)(C)CC5)cc3)cc2)NC(=O)OC2COC3(C)OCCC23)cc1` (stereo not shown) [Compound I-217], the IC50 was 1.95 nM.
With `COc1ccc(S(=O)(=O)N(CC(C)C)CC(O)C(Cc2ccc(NCc3ccccc3-c3ccc(OC(F)(F)F)cc3C(=O)O)cc2)NC(=O)OC2COC3(C)OCCC23)cc1` (stereo not shown) [Compound I-499], inhibition was half-maximal at 1.73 nM (IC50).
As for `COc1ccc(S(=O)(=O)N(CC(C)C)CC(O)C(Cc2ccc(NCc3ccccc3-c3ccc(Nc4sc5c(c4C(=O)O)CC(C)(C)CC5)nc3)cc2)NC(=O)OC2COC3(C)OCCC23)cc1` (stereo not shown) [Compound I-775], the IC50 was determined as 3.64 nM.
For the molecule `COc1ccc(S(=O)(=O)N(CC(C)C)CC(O)C(Cc2ccc(-c3sc4c(c3C(=O)O)CC(C)(C)CC4)cc2)NC(=O)OC2COC3(C)OCCC23)cc1` (stereo not shown) [Compound I-41], the IC50 worked out at 1.11 nM.
For the molecule `COc1ccc(S(=O)(=O)N(CC(C)C)CC(O)C(Cc2ccc(NCC3=C(c4sc5c(c4C(=O)O)CC(C)(C)CC5)CCC3)cc2)NC(=O)OC2COC3(C)OCCC23)cc1` (stereo not shown) [Compound I-381], the IC50 turned out to be 4.69 nM.
With `COc1ccc(S(=O)(=O)N(CC(C)C)C[C@@H](O)[C@H](Cc2ccc(NCC(=O)Nc3sc4c(c3C(=O)O)CC(C)(C)CC4)cc2)NC(=O)OC2CO[C@@]3(C)OCC[C@@H]23)cc1` (stereo partly shown) [Compound I-593], the IC50 turned out to be 1.71 nM.
The figure for `CC(C)CN(CC(O)C(Cc1ccc(NCc2ccccc2C(=O)Nc2sc3c(c2C(=O)O)CC(C)(C)CC3)cc1)NC(=O)OC1COC2(C)OCCC12)S(=O)(=O)c1ccc2ncsc2c1` (stereo not shown) [Compound I-592] is 3.19 nM; for `COc1ccc(S(=O)(=O)N(CC(C)C)CC(O)C(Cc2ccc(N(C)CC3CCCCC3c3sc4c(c3C(=O)O)CC(C)(C)CC4)cc2)NC(=O)OC2COC3(C)OCCC23)cc1` (stereo not shown) [Compound I-359] it is 3.77 nM.
The same measure for `COc1ccc(S(=O)(=O)N(CC(C)C)C[C@@H](O)[C@H](Cc2ccc(OCc3ccc(-c4ccc(F)cc4F)cc3C(=O)NC(=O)NC(C)(C)C)cc2)NC(=O)O[C@H]2CO[C@@]3(C)OCC[C@@H]23)cc1` [Compound I-25]: 2.07 nM; for `CC(C)CN(CC(O)C(Cc1ccc(OCc2nc(Oc3ccccc3)sc2C(=O)O)cc1)NC(=O)OC1COC2OCCC12)S(=O)(=O)c1ccc2ncsc2c1` (stereo not shown) [Compound I-842]: 0.69 nM; for `COc1ccc(S(=O)(=O)N(CC(C)C)CC(O)C(Cc2ccc(OCC3CN(c4ccc(C#N)cc4-c4sc5c(c4C(=O)O)CC(C)(C)CC5)C3)cc2)NC(=O)OC2COC3(C)OCCC23)cc1` (stereo not shown) [Compound I-329]: 7.67 nM.
Take `COc1ccc(S(=O)(=O)N(CC(C)C)CC(O)C(Cc2ccc(OCCNC(=O)c3cccc(Cl)c3O)cc2)NC(=O)OC2COC3(C)OCCC23)cc1` (stereo not shown) [Compound I-169]: inhibition was half-maximal at 0.88 nM (IC50).
The figure for `COc1ccc(S(=O)(=O)N(CC(C)C)CC(O)C(Cc2ccc(NCC3CC(C)(C)CCC3c3sc4c(c3C(=O)O)CC(C)(C)CC4)cc2)NC(=O)OC2COC3OCCC23)cc1` (stereo not shown) [Compound I-886] is 3.68 nM.
The same measure for `COc1ccc(S(=O)(=O)N(CC(C)C)CC(O)C(Cc2ccc(OCc3ccccc3-n3nc(C(=O)O)c4c3CCC(C(F)(F)F)C4)cc2)NC(=O)OC2COC3(C)OCCC23)cc1` (stereo not shown) [Compound I-142]: 1.72 nM; for `COc1ccc(S(=O)(=O)N(CC(C)C)CC(O)C(Cc2ccc(NCc3ccc(-c4sc5c(c4C(=O)O)CC(C)(C)CC5)c(F)c3)cc2)NC(=O)OC2COC3(C)OCCC23)cc1` (stereo not shown) [Compound I-291]: 3.54 nM.
For `COc1ccc(S(=O)(=O)N(CC(C)C)CC(O)C(Cc2ccc(N(C)Cc3ccc(OC)cc3C(=O)Nc3sc4c(c3C(=O)O)CC(C)(C)CC4)cc2)NC(=O)OC2COC3(C)OCCC23)cc1` (stereo not shown) [Compound I-683], the midpoint of inhibition, the IC50, lay at 5.74 nM.
For `COc1ccc(S(=O)(=O)N(CC(C)C)CC(O)C(Cc2ccc(N(C)Cc3ccccc3-c3ccc(Nc4sc5c(c4C(=O)O)CC(C)(C)CC5)nc3)cc2)NC(=O)OC2COC3(C)OCCC23)cc1` (stereo not shown) [Compound I-776], the IC50 amounted to 6.4 nM.
In turn, `CC(C)CN(CC(O)C(Cc1ccc(NCc2ccccc2-c2sc3c(c2C(=O)O)CC(C)(C)CC3)cc1)NC(=O)OC1COC2(C)OCCC12)S(=O)(=O)c1ccc(N)cc1` (stereo not shown) [Compound I-476] registered an IC50 of 1.99 nM.
For the molecule `COc1ccc(S(=O)(=O)N(CC(C)C)CC(O)C(Cc2ccc(OCc3nccnc3-c3sc4c(c3C(=O)O)CC(C)(C)CC4)cc2)NC(=O)OC2COC3(C)OCCC23)cc1` (stereo not shown) [Compound I-187], the IC50 amounted to 2.21 nM.
`COc1ccc(S(=O)(=O)N(CC(C)C)CC(O)C(Cc2ccc(NCc3cc(Cl)ccc3C(=O)Nc3sc4c(c3C(=O)O)CC(C)(C)CC4)cc2)NC(=O)OC2COC3(C)OCCC23)cc1` (stereo not shown) [Compound I-656] registered an IC50 of 6.57 nM.
As for `COc1ccc(S(=O)(=O)N(CC(C)C)CC(O)C(Cc2ccc(N3CCC(Oc4ccccc4C(=O)Nc4sc5c(c4C(=O)O)CC(C)(C)CC5)C3)cc2)NC(=O)OC2COC3(C)OCCC23)cc1` (stereo not shown) [Compound I-595], 2.17 nM corresponded to half-maximal inhibition (IC50).
The figure for `COc1ccc(S(=O)(=O)N(CC(C)C)CC(O)C(Cc2ccc(OCc3cccc(-c4ccc(F)cc4F)c3C(=O)O)cc2)NC(=O)OC2COC3(C)OCCC23)cc1` (stereo not shown) [Compound I-153] is 1.08 nM; for `CC(C)CN(CC(O)C(Cc1ccc(OCc2ccccc2-c2ccccc2C(=O)O)cc1)NC(=O)OC1COC2(C)OCCC12)S(=O)(=O)c1ccc2ncsc2c1` (stereo not shown) [Compound I-64] it is 1.3 nM; for `CC(C)CN(C[C@@H](O)[C@H](Cc1ccc(OCc2ccc(-c3ccc(F)cc3F)cc2C(=O)O)cc1)NC(=O)O[C@H]1CO[C@@]2(C)OCC[C@@H]12)S(=O)(=O)c1ccc2ncsc2c1` [Compound I-18] it is 1.63 nM.
`CCCCC1(Cc2ccc(COc3ccc(CC(NC(=O)OC4COC5(C)OCCC45)C(O)CN(CC(C)C)S(=O)(=O)c4ccc(OC)cc4)cc3)cc2)C(=O)N(c2ccccc2)N(c2ccccc2)C1=O` (stereo not shown) [Compound I-76] showed an IC50 of 1.35 nM.
`COc1ccc(S(=O)(=O)N(CC(C)C)CC(O)C(Cc2ccc(NCc3ccccc3-c3sc4c(c3C(=O)O)CC(C)(C)CC4)cc2)NC(=O)OC2COC3OCC(OC)C23)cc1` (stereo not shown) [Compound I-853] gave an IC50 of 1.98 nM.
The figure for `COc1ccc(S(=O)(=O)N(CC(C)C)CC(O)C(Cc2ccc(CNC(=O)c3cc(-c4ccc(F)cc4F)ccc3O)cc2)NC(=O)OC2COC3OCCC23)cc1` (stereo not shown) [Compound I-817] is 1.56 nM; for `COc1ccc(S(=O)(=O)N(CC(C)C)CC(O)C(Cc2ccc(OCc3ccccc3NC(=O)Nc3sc4c(c3C(=O)O)CC(C)(C)CC4)cc2)NC(=O)OC2COC3(C)OCCC23)cc1` (stereo not shown) [Compound I-229] it is 3.7 nM.
In turn, `COc1ccc(S(=O)(=O)N(CC(C)C)CC(O)C(Cc2ccc(N3CCc4cccc(-c5sc6c(c5C(=O)O)CC(C)(C)CC6)c4C3)cc2)NC(=O)OC2COC3(C)OCCC23)cc1` (stereo not shown) [Compound I-191] yielded an IC50 of 2.22 nM.
In turn, `COc1ccc(S(=O)(=O)N(CC(C)C)CC(O)C(Cc2ccc(NCc3c(C(=O)O)[nH]c4ccc(Cl)cc34)cc2)NC(=O)OC2COC3(C)OCCC23)cc1` (stereo not shown) [Compound I-319] had a half-maximal inhibitory concentration (IC50) of 2.09 nM.
In turn, `COc1ccc(S(=O)(=O)N(CC(C)C)CC(O)C(Cc2ccc(OCc3ccccc3-c3sc4c(c3-c3noc(=O)[nH]3)CC(C)(C)CC4)cc2)NC(=O)OC2COC3OCCC23)cc1` (stereo not shown) [Compound I-815] gave an IC50 of 1.63 nM. This IC50 and that of the molecule before are within 1.5-fold of each other.
`COc1ccc(S(=O)(=O)N(CC(C)C)CC(O)C(Cc2ccc(OCc3ccccc3-c3sc(N4CCC(C)(C)CC4)nc3C(=O)O)cc2)NC(=O)OC2COC3OCCC23)cc1` (stereo not shown) [Compound I-844] came in with an IC50 of 1.01 nM.
Molecule `COc1ccc(S(=O)(=O)N(CC(C)C)CC(O)C(Cc2ccc(NCc3ccccc3-c3csc4c(C(=O)O)cccc34)cc2)NC(=O)OC2COC3(C)OCCC23)cc1` (stereo not shown) [Compound I-898] had an IC50 of 1.78 nM. This IC50 is about 1.8-fold higher than that of the molecule before.
The molecule `COc1ccc(S(=O)(=O)N(CC(C)C)CC(O)C(Cc2ccc(N3CC(Oc4cc5ccccc5cc4C(=O)Nc4sc5c(c4C(=O)O)CC(C)(C)CC5)C3)cc2)NC(=O)OC2COC3(C)OCCC23)cc1` (stereo not shown) [Compound I-671] showed a half-inhibitory concentration (IC50) of 34.8 nM.
With `COc1ccc(S(=O)(=O)N(CC(C)C)CC(O)C(Cc2ccc(OCc3csc(-c4sc5c(c4C(=O)O)CC(C)(C)CC5)n3)cc2)NC(=O)OC2COC3(C)OCCC23)cc1` (stereo not shown) [Compound I-87], the IC50 amounted to 1.32 nM.
On to `COc1ccc(S(=O)(=O)N(CC(C)C)CC(O)C(Cc2ccc(NCc3occc3-c3sc4c(c3C(=O)O)CC(C)(C)CC4)cc2)NC(=O)OC2COC3(C)OCCC23)cc1` (stereo not shown) [Compound I-276], for which the IC50 was found to be 2.16 nM.
The molecule `COc1ccc(S(=O)(=O)N(CC(C)C)CC(O)C(Cc2ccc(N(CCC(C)(C)C)Cc3ccccc3-c3sc4c(c3C(=O)O)CC(C)(C)CC4)cc2)NC(=O)OC2COC3(C)OCCC23)cc1` (stereo not shown) [Compound I-459] gave a half-maximal inhibitory concentration (IC50) of 18.4 nM.
The same measure for `CC(C)CN(CC(O)C(Cc1ccc(CCc2sc3c(c2C(=O)O)CC(C)(C)CC3)cc1)NC(=O)OC1COC2(C)OCCC12O)S(=O)(=O)c1ccc2ncsc2c1` (stereo not shown) [Compound I-889]: 1.49 nM; for `CC(C)CN(CC(O)C(Cc1ccc(OCc2cc(C(=O)O)cc(-c3ccc(F)cc3F)c2)cc1)NC(=O)OC1COC2(C)OCCC12)S(=O)(=O)c1ccc2ncsc2c1` (stereo not shown) [Compound I-60]: 1.6 nM.
In turn, `CC(C)CN(CC(O)C(Cc1ccc(NCc2ccccc2-c2sc3c(c2C(=O)O)CC(C)(C)CC3)cc1)NC(=O)OC1COC2(C)OCCC12)S(=O)(=O)c1ccc2nc(O)sc2c1` (stereo not shown) [Compound I-482] yielded an IC50 of 2.27 nM.
Turning to `COc1ccc(S(=O)(=O)N(CC(C)C)CC(O)C(Cc2ccc(N3CCC(C(=O)Nc4sc5c(c4C(=O)O)CC(C)(C)CC5)C3)cc2)NC(=O)OC2COC3OCCC23)cc1` (stereo not shown) [Compound I-865], the IC50 is 2.21 nM.
Regarding `COc1ccc(S(=O)(=O)N(CC(C)C)CC(O)C(Cc2ccc(NCc3ccc(C=CC(=O)Nc4sc5c(c4C(=O)O)CC(C)(C)CC5)cc3)cc2)NC(=O)OC2COC3(C)OCCC23)cc1` (stereo not shown) [Compound I-444], the IC50 worked out at 5.1 nM.
The figure for `COc1ccc(S(=O)(=O)N(CC(C)C)CC(O)C(Cc2ccc(OCc3ccccc3-c3sc(-c4ccccc4)cc3C(=O)O)cc2)NC(=O)OC2COC3OCCC23)cc1` (stereo not shown) [Compound I-848] is 0.89 nM.

One may read the IC50 as the concentration that gives 50% inhibition. Low readings indicate higher potency, high ones lower potency.

Source of the values: patent publication US20170253607A1, “LONG-ACTING HIV PROTEASE INHIBITOR” (Shionogi & Co., Ltd., priority 2014, published 2017).
